This is an account of results in US11918555B2, “Dicarboxylic acid esters for the treatment of diseases and conditions associated with phospholipase D toxin” (priority 2020, dated 2024).

In data set [1] the test system is human RBC. Kind of data set: Hemolysis assay on human RBC (substance alone). The data set is classed as cell-based. The procedure:
(§1) Hemolytic activity was assessed on human RBC. The assay using human erythrocytes followed an established procedure as described in Evans, et al., “Ex vivo red blood cell hemolysis assay for the evaluation of pH-responsive endosomolytic agents for cytosolic delivery of biomacromolecular drugs,” J Vis Exp, 2013, e50166. Briefly, whole peripheral blood was drawn directly into K2-EDTA coated Vacutainer tubes and centrifuged at 500×g (relative centrifugal force). Pelleted erythrocytes were washed twice each with 150 mM NaCl and with phosphate buffered saline (PBS) and then reconstituted in 50-fold excess PBS. Immediately prior to the assay LOX was reconstituted in 20% glycerol in PBS. rPLD toxin was supplied as frozen stock in 10 mM Tris-HCl, 1 mM EDTA, 20% glycerol, was thawed on ice. The lysis assay was performed in 96-wells in a total volume of 200 ul. LOX and PLD toxin were and added as 20× concentrated stocks to the erythrocyte suspension. Triton X-100 (5% in serial dilutions to 0.04%) was used as a positive control. Incubation was performed for 60 min and the absorbance at 400 nm was measured using Tecan GENios microwell plate reader. Measurements were performed in triplicate repeats.

In data set [2] the test system is Recombinant Loxosceles intermedia Phospholipase D LiSicTox-alphaIA1a (rPLD toxin). As to the kind of experiment: Inhibition of hemolysis induced by recombinant PLD toxin. It counts as cell-based. As to the method:
(§2) Lyophilized Loxosceles reclusa venom (LOX) was purchased from SpiderPharm, Yarnell, AZ Immediately prior to the assay LOX was reconstituted in 20% glycerol in PBS. Recombinant Loxosceles intermedia Phospholipase D LiSicTox-alphaIA1a full length protein expressed in E.coli (part #MBS1258368), further referred to as rPLD toxin, was purchased from MyBiosource Inc, San Diego, CA Diethyl azelate (>99% purity) was prepared as described in Streeper, el al.,“Oral Azelaic Acid Ester Decreases Markers Of Insulin Resistance In Overweight Male Human Subjects.” In Vivo (2020), 34(3), 1173-1186.
as §1

In data set [3] the test system is brown recluse spider bite. As to the kind of experiment: Topical diethyl azelate treatment of brown recluse spider bite. The data set is classed as in vivo, human. The procedure:
An adult subject was bitten once on their left forearm, and twice on their neck about one year later. Diethyl azelate was applied topically to the envenomation site at approximately 4 to 8 hour intervals for 14 days. Images of the affected neck area were normalized to the same size and converted to JPEG files. Inflamed red areas surrounding the bites visible as elevated lesions were outlined on the images and quantified using ImageJ software version 1.53e (ImageJ.nih.gov).

The subject of data set [4] is Loxosceles reclusa venom (LOX). As to the kind of experiment: Inhibition of hemolysis induced by L. reclusa venom (LOX). The data set is classed as cell-based. The procedure:
as §2, §1

Some results are limits rather than exact numbers.

With `CCOC(=O)CCCCCCCC(=O)OCC` [DEA, Diethyl azelate], in data set [1] (human erythrocytes incubated with 122 μM DEA alone), the effect on hemolysis result is recorded as “no effect on hemolysis”. Moreover, the “hemolysis in the presence of PLD toxin” value worked out at 43% in data set [2] (1 μM DEA, reduced from 78%); 16% in data set [2] (5 μM DEA); 13% in data set [2] (24 μM DEA); 5% in data set [2] (122 μM DEA). For the same molecule, the “inhibition of hemolysis by recombinant L. intermedia rPLD toxin, dose dependence” value in data set [2] (FIG. 3 legend) was “inhibits hemolysis”. For the same molecule, the “inhibition of enzymatic activity of PLD toxin as measured by hemolysis induced by recombinant L. intermedia rPLD toxin” value in data set [2] (FIG. 4 legend) is “directly inhibits enzymatic activity”. The swelling and discomfort entry in data set [3] (first incident, forearm bite, topical treatment initiated 4 hours after envenomation, by the fourth day) is on record as “largely subsided”. Moreover, the “arm circumference relative to pre-bite” value in data set [3] (first incident, forearm bite, topical treatment initiated 4 hours after envenomation, second day) is “approximately twice”. Further, in data set [3] (second incident, two neck bites, topical treatment initiated immediately, Day 2), the “time of maximum inflamed red area around the bites” value was 26 hours post-bite. The “redness, pain and swelling” value in data set [3] (second incident, two neck bites, topical treatment initiated immediately, by Day 14) is given as “entirely resolved”. Besides, in data set [4] (FIG. 3 legend), the “inhibition of hemolysis by L. reclusa venom, dose dependence” value was “inhibits hemolysis”. Moreover, in data set [4] (FIG. 4 legend), the “inhibition of enzymatic activity of PLD toxin as measured by hemolysis induced by L. reclusa spider venom” value is “directly inhibits enzymatic activity”. Further, the inhibition of hemolysis entry in data set [4] (preincubation of DEA with LOX for 60 min followed by addition of erythrocytes (FIG. 4)) and in data set [4] (preincubation of DEA with erythrocytes for 60 min followed by addition of LOX (FIG. 4)) was “inhibition of hemolysis” each time. Moreover, the “inhibition of hemolysis in the presence of LOX” value in data set [4] (starting at the lowest concentration of 1 μM DEA, constant LOX concentration (FIG. 3)) was “significantly inhibits hemolysis”.
On to Triton X100 [reference compound], for which, in data set [1] (human erythrocytes incubated with 5% Triton X100, positive control), the “erythrocytes hydrolyzed (hemolysis)” value is recorded as > 95%.
